The target of the test is SOX2 (Homo sapiens, UniProt P48431). Put plainly: competitive EMSA. The note with it: 300 uM compound; pH 7.5; competes with DNA; off-target control. It is filed as binding. A general note: Mobility shift assays separate free from complexed probe on a gel.
SOX2, sequence (P48431 whole entry): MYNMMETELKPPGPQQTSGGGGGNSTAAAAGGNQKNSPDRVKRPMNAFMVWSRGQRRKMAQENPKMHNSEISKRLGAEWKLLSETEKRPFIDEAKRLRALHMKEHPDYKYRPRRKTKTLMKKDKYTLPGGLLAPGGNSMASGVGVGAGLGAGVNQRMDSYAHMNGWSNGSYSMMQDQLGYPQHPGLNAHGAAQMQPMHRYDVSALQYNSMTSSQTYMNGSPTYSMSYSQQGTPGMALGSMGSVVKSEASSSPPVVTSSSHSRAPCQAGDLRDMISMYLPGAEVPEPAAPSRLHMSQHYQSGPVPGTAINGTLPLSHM

On to `Cc1cc2nc(-c3cccc(NC(=O)c4ccc(C)c([N+](=O)[O-])c4)c3)oc2cc1C` [A, Compound A], for which the “competitive EMSA (loss of shifted biotin-DNA probe)” value is “SOX2 was competed by Compound A only”.

Source of the values: paper doi:10.1101/2022.04.05.487101v2 (biorxiv, 2022).
